# Test results taken from patent publication US12435058B2, “KIF18A inhibitors” (AMGEN INC., priority 2019, dated 2025).
# Biological target: T1, Recombinant human KIF18A (1-467 His-tagged) protein (Homo sapiens, UniProt Q8NI77)
# T1 construct: Recombinant human KIF18A (1-467 His-tagged) protein; His; made in house
# Assay: KIF18A Enzyme Assay (microtubule-stimulated ATPase activity, ADP-Glo)
# Format: biochemical
# Conditions: KIF18A protein 30 nM, ATP 75 μM (at Km), 30 μg/mL pig microtubules, ADP-Glo luminescence
# Text: For compounds in Table A, the following assay conditions were employed:
# KIF18A Enzyme Assay: Microtubule-stimulated ATPase activity assay is used to measure KIF18A enzyme activity after treatment with compound. Compounds were 2-fold serially diluted in DMSO (Sigma Inc) over 22-point concentration range. Recombinant human KIF18A (1-467 His-tagged) protein was expressed using a baculovirus system and purified by affinity chromatography by Amgen Inc. Concentrations of KIF18A protein, microtubules (MT), and ATP in the reaction were optimized for standardized homogenous enzyme assay using ADP-Glom Kinase/ATPase Assay Kit (Promega Inc). The assay measures ADP formed from the ATPase reaction. […] Read luminescence using EnVision microplate reader with ultra-luminescence module (Perkin Elmer Inc). Concentration-response curve-fitting and IC50 determination was performed using Genedata Screener Software (Standard 15.0.1, Genedata Inc) with a four-parameter logistic regression fit model.
# T1 sequence (Q8NI77 1-467): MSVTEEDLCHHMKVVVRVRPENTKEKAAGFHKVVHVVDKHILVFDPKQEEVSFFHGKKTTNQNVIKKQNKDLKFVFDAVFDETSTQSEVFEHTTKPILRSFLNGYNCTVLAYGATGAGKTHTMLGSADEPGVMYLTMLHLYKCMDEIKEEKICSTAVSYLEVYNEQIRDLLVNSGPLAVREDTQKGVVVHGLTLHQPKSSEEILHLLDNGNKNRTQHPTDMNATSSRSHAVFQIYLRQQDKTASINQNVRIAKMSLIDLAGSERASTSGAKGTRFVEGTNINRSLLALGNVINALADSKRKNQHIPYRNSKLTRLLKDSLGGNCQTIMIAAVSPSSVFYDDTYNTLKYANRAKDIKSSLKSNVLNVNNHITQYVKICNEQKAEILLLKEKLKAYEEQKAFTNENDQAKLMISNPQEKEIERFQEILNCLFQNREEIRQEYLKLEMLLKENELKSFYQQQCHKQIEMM
# T1 sequence (P02550 whole entry partner): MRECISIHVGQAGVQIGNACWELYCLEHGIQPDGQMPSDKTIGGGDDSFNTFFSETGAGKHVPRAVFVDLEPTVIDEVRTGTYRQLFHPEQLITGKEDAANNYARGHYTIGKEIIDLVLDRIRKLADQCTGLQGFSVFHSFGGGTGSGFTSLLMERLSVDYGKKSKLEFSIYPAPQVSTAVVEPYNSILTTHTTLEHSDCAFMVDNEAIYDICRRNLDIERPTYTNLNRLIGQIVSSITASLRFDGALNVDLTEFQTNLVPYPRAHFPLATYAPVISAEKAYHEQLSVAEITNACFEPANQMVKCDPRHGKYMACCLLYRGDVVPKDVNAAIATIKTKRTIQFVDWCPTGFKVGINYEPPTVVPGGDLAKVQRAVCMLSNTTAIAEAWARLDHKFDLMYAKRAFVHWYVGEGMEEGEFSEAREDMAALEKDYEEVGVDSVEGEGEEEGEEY
# T1 sequence (P02554 whole entry partner): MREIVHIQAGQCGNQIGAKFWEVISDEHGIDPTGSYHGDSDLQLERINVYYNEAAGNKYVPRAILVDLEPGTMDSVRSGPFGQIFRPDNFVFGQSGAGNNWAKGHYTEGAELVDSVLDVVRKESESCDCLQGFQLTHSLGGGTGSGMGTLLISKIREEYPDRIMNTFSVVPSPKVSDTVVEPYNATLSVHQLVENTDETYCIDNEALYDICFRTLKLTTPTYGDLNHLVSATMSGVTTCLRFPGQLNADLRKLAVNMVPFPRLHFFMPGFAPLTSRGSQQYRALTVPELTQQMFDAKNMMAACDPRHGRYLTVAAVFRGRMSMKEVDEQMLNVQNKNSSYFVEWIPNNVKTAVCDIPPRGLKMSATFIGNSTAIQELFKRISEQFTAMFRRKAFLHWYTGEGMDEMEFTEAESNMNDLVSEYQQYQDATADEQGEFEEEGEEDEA
row,SMILES,IC50 [nM]
1,"CC(C)(C)NS(=O)(=O)c1cccc(NC(=O)c2ncc(NC(C)(C)CO)nc2N2CC3(CCCCC3)C2)c1 [Example 100-13, N-(3-(N-(tert-butyl)sulfamoyl)phenyl)-5-((1-hydroxy-2-methylpropan-2-yl)amino)-3-(2-azaspiro[3.5]nonan-2-yl)pyrazine-2-carboxamide]",410
2,"CC(C)(C)NS(=O)(=O)c1cccc(NC(=O)c2ncc(NC(C)(C)CO)nc2N2CCC3(CC2)CC(F)(F)C3)c1 [Example 100-16, N-(3-(N-(tert-butyl)sulfamoyl)phenyl)-3-(2,2-difluoro-7-azaspiro[3.5]nonan-7-yl)-5-((1-hydroxy-2-methylpropan-2-yl)amino)pyrazine-2-carboxamide]",215
3,"CC1(C)CCN(c2nc(NC(C)(C)CO)cnc2C(=O)Nc2cccc(S(=O)(=O)NC(C)(C)C)c2)CC1 [Example 100-5, N-(3-(N-(tert-butyl)sulfamoyl)phenyl)-3-(4,4-dimethylpiperidin-1-yl)-5-((1-hydroxy-2-methylpropan-2-yl)amino)pyrazine-2-carboxamide]",190
4,"CCCC1CCN(c2nc(NC(C)(C)CO)cnc2C(=O)Nc2cccc(S(=O)(=O)NC(C)(C)C)c2)CC1 [Example 100-9, N-(3-(N-(tert-butyl)sulfamoyl)phenyl)-5-((1-hydroxy-2-methylpropan-2-yl)amino)-3-(4-propylpiperidin-1-yl)pyrazine-2-carboxamide]",118
5,"COCC1CCN(c2nc(NC(C)(C)CO)cnc2C(=O)Nc2cccc(S(=O)(=O)NC(C)(C)C)c2)CC1 [Example 100-11, N-(3-(N-(tert-butyl)sulfamoyl)phenyl)-5-((1-hydroxy-2-methylpropan-2-yl)amino)-3-(4-(methoxymethyl)piperidin-1-yl)pyrazine-2-carboxamide]",1390
6,"CC(C)(C)NS(=O)(=O)c1cccc(NC(=O)c2ncc(NC(C)(C)CO)nc2N2CCC(C3CC3)CC2)c1 [Example 100-10, N-(3-(N-(tert-butyl)sulfamoyl)phenyl)-3-(4-cyclopropylpiperidin-1-yl)-5-((1-hydroxy-2-methylpropan-2-yl)amino)pyrazine-2-carboxamide]",221
7,"CC(C)(C)NS(=O)(=O)c1cccc(NC(=O)c2ncc(NC(C)(C)CO)nc2N2CCC3(CC2)CC3)c1 [Example 100, N-(3-(N-(tert-Butyl)sulfamoyl)phenyl)-5-((1-hydroxy-2-methylpropan-2-yl)amino)-3-(6-azaspiro[2.5]octan-6-yl)pyrazine-2-carboxamide]",82

# Results, then the compound that gave them:
row,IC50 [nM],SMILES
1,172,"CC(C)(C)NS(=O)(=O)c1cc(F)cc(NC(=O)c2ncc(NC(C)(C)CO)nc2N2CCC3(CC2)CC3)c1 [Example 101-4, N-(3-(N-(tert-butyl)sulfamoyl)-5-fluorophenyl)-5-((1-hydroxy-2-methylpropan-2-yl)amino)-3-(6-azaspiro[2.5]octan-6-yl)pyrazine-2-carboxamide]"
2,174,"CC(C)(C)NS(=O)(=O)c1cccc(NC(=O)c2ncc([C@@](C)(O)C(F)(F)F)nc2N2CCC3(CC2)CC3)c1 (single isomer, unassigned) [Example 105-1]"
3,111,"CC(C)(CO)Nc1cnc(C(=O)Nc2cccc(S(=O)(=O)[C@@H]3CCC(F)(F)C3)c2)c(N2CCC3(CC2)CC3)n1 (single isomer, unassigned) [Example 102-2]"
4,240,"CC(C)(CO)Nc1cccc(NC(=O)c2ncc(NC(C)(C)CO)nc2N2CCC3(CC2)CC3)c1 [Example 101-8, 5-((1-hydroxy-2-methylpropan-2-yl)amino)-N-(3-((1-hydroxy-2-methylpropan-2-yl)amino)phenyl)-3-(6-azaspiro[2.5]octan-6-yl)pyrazine-2-carboxamide]"
5,77,"CC(C)(CO)Nc1cnc(C(=O)Nc2cccc(S(=O)(=O)C3CCCC3)c2)c(N2CCC3(CC2)CC3)n1 [Example 103, N-(3-(Cyclopentylsulfonyl)phenyl)-5-((1-hydroxy-2-methylpropan-2-yl)amino)-3-(6-azaspiro[2.5]octan-6-yl)pyrazine-2-carboxamide]"
6,545,"CC(C)(CO)Nc1cnc(C(=O)Nc2cccc(N3CCS(=O)(=O)CC3)c2)c(N2CCC3(CC2)CC3)n1 [Example 101-6, N-(3-(1,1-dioxidothiomorpholino)phenyl)-5-((1-hydroxy-2-methylpropan-2-yl)amino)-3-(6-azaspiro[2.5]octan-6-yl)pyrazine-2-carboxamide]"
7,218,"CC(C)(CO)Nc1cnc(C(=O)Nc2cccc(S(=O)(=O)C(C)(C)C)c2)c(N2CCC3(CC2)CC3)n1 [Example 101-2, N-(3-(tert-butylsulfonyl)phenyl)-5-((1-hydroxy-2-methylpropan-2-yl)amino)-3-(6-azaspiro[2.5]octan-6-yl)pyrazine-2-carboxamide]"
